Type in all cases: biochemical
One assay addresses Pim-3 (Homo sapiens (Human), UniProt Q86V86). Description: Pim-3 kinase assay. As to conditions: 1 mM ATP; read-out: PIM3 IC50. The procedure, abridged: (§1)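 Biotin-BAD peptide (0.05 μM) phosphorylated with 1 mM ATP by 2.5 pM Pim-1 or 1.25 pM Pim-3 in Tris pH 7.5/MgCl2/DTT buffer, 1 h at 25° C. EDTA stop; phospho-BAD (Ser112) antibody with streptavidin donor and Protein-A acceptor beads, 1 h dark at room temperature before AlphaScreen-type bead read.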

Another assay addresses Pim-2 (Homo sapiens (Human), UniProt Q9P1W9). Description: Pim-2 kinase assay. As to conditions: 1 mM ATP; read-out: PIM2 IC50. An outline of the steps:
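TR-FRET assay with 1 nM enzyme, 0.05 μM fluorescein-CREBtide and 1 mM ATP in Tris pH 7.5 buffer with MgCl2, DTT, BSA and Tween-20, run 2 h at 25° C. Stopped with EDTA and Tb-labelled anti-CREB pSer133 antibody, then read after 30 min at room temperature.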

Another assay addresses Pim-1 (Homo sapiens (Human), UniProt P11309). Description: Pim-1 kinase assay. The following applies: 1 mM ATP; read-out: PIM1 IC50. An outline of the steps:
as §1

A value given as a limit tells only on which side of the number the result lay.

By IC50 is commonly meant the point on the concentration scale where inhibition reaches its midpoint.

Chain of Pim-1 (P11309 whole entry): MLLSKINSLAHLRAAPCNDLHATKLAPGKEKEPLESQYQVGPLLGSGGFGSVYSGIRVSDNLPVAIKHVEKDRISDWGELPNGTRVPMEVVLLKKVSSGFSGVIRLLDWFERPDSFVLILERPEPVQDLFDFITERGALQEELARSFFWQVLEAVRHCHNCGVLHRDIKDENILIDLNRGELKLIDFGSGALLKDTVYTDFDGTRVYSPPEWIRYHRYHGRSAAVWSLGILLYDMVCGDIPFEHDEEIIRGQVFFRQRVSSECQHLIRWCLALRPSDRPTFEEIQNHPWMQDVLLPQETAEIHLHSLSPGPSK
Chain of Pim-2 (Q9P1W9 whole entry): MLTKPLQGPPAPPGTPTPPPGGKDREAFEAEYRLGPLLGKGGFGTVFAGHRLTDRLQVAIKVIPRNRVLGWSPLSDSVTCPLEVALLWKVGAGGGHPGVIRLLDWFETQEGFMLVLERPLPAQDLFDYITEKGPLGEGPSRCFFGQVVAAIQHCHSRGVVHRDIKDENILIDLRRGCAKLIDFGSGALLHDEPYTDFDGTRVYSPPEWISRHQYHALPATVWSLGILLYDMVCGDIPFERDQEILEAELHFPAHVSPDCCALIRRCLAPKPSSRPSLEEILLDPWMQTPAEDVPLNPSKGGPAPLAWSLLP

Consider `C[C@@H]1C[C@H](N)C[C@H](c2ccncc2NC(=O)c2ccc(F)c3cc(N4CC[C@H]4CO)cnc23)C1` [Example 123, N-(4-((1R,3S,5S)-3-Amino-5-methylcyclohexyl)pyridin-3-yl)-5-fluoro-3-((S)-2-(hydroxymethyl)azetidin-1-yl)quinoline-8-carboxamide], for which the IC50 was at most 10 nM at Pim-3, at most 100 nM on Pim-2 and at most 10 nM at Pim-1.
`C[C@@H]1C[C@H](N)C[C@H](c2ccncc2NC(=O)c2ccc(F)c3cc(-c4cn[nH]c4)cnc23)C1` [Example 66, N-(4-((1R,3S,5S)-3-amino-5-methylcyclohexyl)pyridin-3-yl)-5-fluoro-3-(1H-pyrazol-4-yl)quinoline-8-carboxamide]: the IC50 is at most 10 nM on Pim-3, 100 to 1000 nM at Pim-2 and at most 10 nM on Pim-1.
On to `C[C@@H]1C[C@H](N)C[C@H](c2ccncc2NC(=O)c2ccc(F)c3cc(N4CC(=O)N(C)C[C@H]4C)cnc23)C1` [Example 99, N-(4-((1R,3S,5S)-3-Amino-5-methylcyclohexyl)pyridin-3-yl)-3-((R)-2,4-dimethyl-5-oxopiperazin-1-yl)-5-fluoroquinoline-8-carboxamide], for which the IC50 at Pim-3 was at most 10 nM; at Pim-2, at most 100 nM; at Pim-1 it was at most 10 nM.
In the case of `C[C@@H]1C[C@H](N)C[C@H](c2ccncc2NC(=O)c2ccc(F)c3cc(N(C)c4ccc5nccn5c4)cnc23)C1` [Example 153], the IC50 is at most 10 nM on Pim-3, 100 to 1000 nM at Pim-2 and at most 10 nM at Pim-1.
With `CO[C@@H]1CCN(c2cnc3c(C(=O)Nc4cnccc4[C@@H]4C[C@H](C)C[C@H](N)C4)ccc(F)c3c2)[C@@H](C)C1` [Example 160, N-(4-((1R,3S,5S)-3-Amino-5-methylcyclohexyl)pyridin-3-yl)-5-fluoro-3-((2S,4R)-4-methoxy-2-methylpiperidin-1-yl)quinoline-8-carboxamide], the values for the IC50 on Pim-3, at Pim-2 and at Pim-1 were at most 10 nM, at most 100 nM and at most 10 nM, respectively.
For `C[C@@H]1C[C@H](N)C[C@H](c2ccncc2NC(=O)c2ccc(F)c3cc(N4CCSCC4)cnc23)C1` [Example 73, N-(4-((1R,3S,5S)-3-Amino-5-methylcyclohexyl)pyridin-3-yl)-5-fluoro-3-thiomorpholinoquinoline-8-carboxamide], the IC50 at Pim-3 was at most 10 nM; on Pim-2 it was at most 100 nM; on Pim-1, at most 10 nM.
Take `C[C@@H]1C[C@H](N)C[C@H](c2ccncc2NC(=O)c2ccc(F)c3cc(N4CCN(S(C)(=O)=O)C[C@@H]4C)cnc23)C1` [Example 85, N-(4-((1R,3S,5S)-3-Amino-5-methylcyclohexyl)pyridin-3-yl)-5-fluoro-3-((S)-2-methyl-4-(methylsulfonyl)piperazin-1-yl)quinoline-8-carboxamide]: the concentration for half-maximal inhibition (IC50) on Pim-3 is at most 10 nM; on Pim-2 it was 100 to 1000 nM; on Pim-1, at most 10 nM.
With `C[C@@H]1C[C@H](N)C[C@H](c2ccncc2NC(=O)c2ccc(F)c3cc(-c4ccc(F)c5cccnc45)cnc23)C1` [Example 60, N-(4-((1R,3S,5S)-3-Amino-5-methylcyclohexyl)pyridin-3-yl)-5,5′-difluoro-3,8′-biquinoline-8-carboxamide], the results for the IC50 at Pim-3, on Pim-2 and at Pim-1 were 10 to 50 nM, 1000 to 10000 nM and at most 10 nM, respectively.
Taken in the same sequence, the figures for `C[C@@H]1C[C@H](N)C[C@H](c2ccncc2NC(=O)c2cccc3cc(N4CCC[C@@H]4C)cnc23)C1` [Example 69, N-(4-((1R,3S,5S)-3-Amino-5-methylcyclohexyl)pyridin-3-yl)-3-((S)-2-methylpyrrolidin-1-yl)quinoline-8-carboxamide] were at most 10 nM, at most 100 nM and at most 10 nM.
Taken in the same sequence, the figures for `C[C@@H]1C[C@H](N)C[C@H](c2ccncc2NC(=O)c2ccc(F)c3cc(N4CC(C)(C)C4)cnc23)C1` [Example 116, N-(4-((1R,3S,5S)-3-Amino-5-methylcyclohexyl)pyridin-3-yl)-3-(3,3-dimethylazetidin-1-yl)-5-fluoroquinoline-8-carboxamide] were at most 10 nM, at most 100 nM and at most 10 nM.
The matching figures for `C[C@@H]1C[C@H](N)C[C@H](c2ccncc2NC(=O)c2ccc(F)c3cc(NCCF)cnc23)C1` [Example 26, N-{4-[(1R,3S,5S)-3-Amino-5-methylcyclohexyl]pyridin-3-yl}-5-fluoro-3-[(2-fluoroethyl)amino]quinoline-8-carboxamide]: at most 10 nM, at most 100 nM and at most 10 nM.
Regarding `CCn1cc(-c2cnc3c(C(=O)Nc4cnccc4[C@@H]4C[C@H](C)C[C@H](N)C4)ccc(F)c3c2)cn1` [Example 62, N-(4-((1R,3S,5S)-3-Amino-5-methylcyclohexyl)pyridin-3-yl)-3-(1-ethyl-1H-pyrazol-4-yl)-5-fluoroquinoline-8-carboxamide], the results for the IC50 on Pim-3, at Pim-2 and at Pim-1 were at most 10 nM, 100 to 1000 nM and at most 10 nM, respectively.
In the case of `CC1CCN(c2cnc3c(C(=O)Nc4cnccc4[C@@H]4C[C@H](C)C[C@H](N)C4)ccc(F)c3c2)CC1` [Example 46, N-(4-((1R,3S,5S)-3-Amino-5-methylcyclohexyl)pyridin-3-yl)-5-fluoro-3-(4-methylpiperidin-1-yl)quinoline-8-carboxamide], the figures for the 50% inhibitory concentration (IC50) at Pim-3, on Pim-2 and at Pim-1 were at most 10 nM, 100 to 1000 nM and at most 10 nM, respectively.
Consider `COC[C@H]1CCCN1c1cnc2c(C(=O)Nc3cnccc3[C@@H]3C[C@H](C)C[C@H](N)C3)ccc(F)c2c1` [Example 47, N-(4-((1R,3S,5S)-3-Amino-5-methylcyclohexyl)pyridin-3-yl)-5-fluoro-3-OR)-2-(methoxymethyl)pyrrolidin-1-yl)quinoline-8-carboxamide], for which the values for the IC50 on Pim-3, on Pim-2 and on Pim-1 were at most 10 nM, at most 100 nM and at most 10 nM, respectively.
Take `C[C@@H]1C[C@H](N)C[C@H](c2ccncc2NC(=O)c2ccc(F)c3cc(N4CC5CC(C4)O5)cnc23)C1` [Example 81, N-(4-((1R,3S,5S)-3-Amino-5-methylcyclohexyl)pyridin-3-yl)-3-(6-oxa-3-azabicyclo[3.1.1]heptan-3-yl)-5-fluoroquinoline-8-carboxamide]: the IC50 on Pim-3 is at most 10 nM; on Pim-2 it was at most 100 nM; on Pim-1, at most 10 nM.
Turning to `C[C@@H]1C[C@H](N)C[C@H](c2ccncc2NC(=O)c2ccc(F)c3cc(-c4cc(F)cc5cccnc45)cnc23)C1` [Example 59, N-(4-((1R,3S,5S)-3-Amino-5-methylcyclohexyl)pyridin-3-yl)-5,6′-difluoro-3,8′-biquinoline-8-carboxamide], the values for the concentration for half-maximal inhibition (IC50) on Pim-3, at Pim-2 and at Pim-1 were 10 to 50 nM, 1000 to 10000 nM and at most 10 nM, respectively.
The matching figures for `CCc1cnc2c(C(=O)Nc3cnccc3[C@@H]3C[C@H](C)C[C@H](N)C3)ccc(F)c2c1` [Example 1, N-{4-[(1R,3S,5S)-3-Amino-5-methylcyclohexyl]pyridin-3-yl}-3-ethyl-5-fluoroquinoline-8-carboxamide]: at most 10 nM, 100 to 1000 nM and at most 10 nM.

The record behind these values is patent US9920032B2, “Heterocyclic compounds useful as pim kinase inhibitors” (Incyte Corporation, priority 2015, dated 2018).
